Earlier results, collected in patent US10143669B2, “Use of short chain fatty acids in cancer prevention” (Temple University-Of The Commonwealth System of Higher …, priority 2015, dated 2018).

Legend:
HBx transgenic mice = settings: Arzumanyan A et al., Cancer Res, 2012
established tumor = settings: Bindels L B et al., Br J Cancer, 2012
[1] = system: Hepatocellular carcinoma (HCC); settings: Peck-Radosavljevic M, Liver Cancer, 2014

For `CS(=O)(=O)c1ccc(C(=O)Nc2ccc(Cl)c(-c3ccccn3)c2)c(Cl)c1` [GDC-0449], the “number and size of tumors in HBx transgenic mice” value (HBx transgenic mice) is listed as “decreased the number and size of tumors”.

For `CCC(=O)O` [proprionate], the “growth of an established tumor” value (established tumor) is given as “reduce the growth”.

In the case of `CNC(=O)c1cc(Oc2ccc(NC(=O)Nc3ccc(Cl)c(C(F)(F)F)c3)cc2)ccn1` [sorafenib], the “life expectancy extended, average” value [1] is given as 3 months.
